Drawing on PubChem BioAssay AID1259407 (Chemical Carcinogenesis Research Information System (CCRIS), 2018), this text covers mutagenic call for 3 compounds.

The test system of this data set is CCRIS mutagenicity, Ames/micronucleus/aberration tests. The data set is described as follows: CCRIS mutagenicity studies.

Structures are written as SMILES. Calls of active or inactive are those of the source. The rule behind the calls is not given here.

In the case of `c1ccoc1`, the mutagenic call (End Point: In vitro micronucleus, Test System: Human lymphocytes, Metabolic Activation: None) was “inactive; negative”; the mutagenic call (End Point: In vitro micronucleus, Test System: Human lymphocytes, Metabolic Activation: Rat, liver, S-9, Aroclor 1254) was “inactive; negative”; the mutagenic call (End Point: In vitro micronucleus, Test System: Mouse lymphoma L5178Y cells, Metabolic Activation: None) is “inactive; negative”; the mutagenic call (End Point: In vivo micronucleus, Test System: Peripheral blood erythrocytes, Species: Mouse, Strain/Sex: Balb/C/Male, Route: Intraperitoneal) was “inactive; negative”; the mutagenic call (End Point: In vivo micronucleus, Test System: Peripheral blood erythrocytes, Species: Mouse, Strain/Sex: Balb/C/Male, Route: Subcutaneous) was “inactive; negative”; the mutagenic call (Test System: AMES SALMONELLA TYPHIMURIUM, Strain/Indicator: TA98, Metabolic Activation: HAMSTER, LIVER, S-9, AROCLOR 1254 (10%), Method: PREINCUBATION) is “inactive; negative”. Besides, the mutagenic call is “inactive; negative” (Test System: AMES SALMONELLA TYPHIMURIUM, Strain/Indicator: TA98, Metabolic Activation: NONE, Method: PREINCUBATION); “inactive; negative” (Test System: AMES SALMONELLA TYPHIMURIUM, Strain/Indicator: TA98, Metabolic Activation: RAT, LIVER, S-9, AROCLOR 1254 (10%), Method: PREINCUBATION); “inactive; negative” (Test System: AMES SALMONELLA TYPHIMURIUM, Strain/Indicator: TA98, Metabolic Activation: RAT, LIVER, S-9, AROCLOR 1254, Method: STANDARD PLATE); “active; positive” (Test System: AMES SALMONELLA TYPHIMURIUM, Strain/Indicator: TA98, Metabolic Activation: S-9, Method: STANDARD PLATE); “inactive; negative” (Test System: AMES SALMONELLA TYPHIMURIUM, Strain/Indicator: TA100, Metabolic Activation: HAMSTER, LIVER, S-9, AROCLOR 1254 (10%), Method: PREINCUBATION); “inactive; negative” (Test System: AMES SALMONELLA TYPHIMURIUM, Strain/Indicator: TA100, Metabolic Activation: NONE, Method: PREINCUBATION). Further, the mutagenic call is “inactive; negative” (Test System: AMES SALMONELLA TYPHIMURIUM, Strain/Indicator: TA100, Metabolic Activation: RAT, LIVER, S-9, AROCLOR 1254 (10%), Method: PREINCUBATION); “inactive; negative” (Test System: AMES SALMONELLA TYPHIMURIUM, Strain/Indicator: TA100, Metabolic Activation: S-9, Method: STANDARD PLATE); “inactive; negative” (Test System: AMES SALMONELLA TYPHIMURIUM, Strain/Indicator: TA1535, Metabolic Activation: HAMSTER, LIVER, S-9, AROCLOR 1254 (10%), Method: PREINCUBATION); “inactive; negative” (Test System: AMES SALMONELLA TYPHIMURIUM, Strain/Indicator: TA1535, Metabolic Activation: NONE, Method: PREINCUBATION); “inactive; negative” (Test System: AMES SALMONELLA TYPHIMURIUM, Strain/Indicator: TA1535, Metabolic Activation: RAT, LIVER, S-9, AROCLOR 1254 (10%), Method: PREINCUBATION); “inactive; negative” (Test System: AMES SALMONELLA TYPHIMURIUM, Strain/Indicator: TA1537, Metabolic Activation: HAMSTER, LIVER, S-9, AROCLOR 1254 (10%), Method: PREINCUBATION). In addition, the mutagenic call reads like this: (Test System: AMES SALMONELLA TYPHIMURIUM, Strain/Indicator: TA1537, Metabolic Activation: NONE, Method: PREINCUBATION) “inactive; negative”; (Test System: AMES SALMONELLA TYPHIMURIUM, Strain/Indicator: TA1537, Metabolic Activation: RAT, LIVER, S-9, AROCLOR 1254 (10%), Method: PREINCUBATION) “inactive; negative”; (Test System: Mouse lymphoma, Strain/Indicator: L5178Y (tk+/tk-), Metabolic Activation: None, Method: Preincubation) “inactive; negative”.
With `OCc1ccnc2ccccc12`, where the note is “Test System: AMES SALMONELLA TYPHIMURIUM, Strain/Indicator: TA100, Metabolic Activation: RAT, LIVER, S-9, Method: PREINCUBATION”, the mutagenic call was “inactive; negative”.
For `Nc1ccc(N=Nc2cccc(N)c2N)cc1`, the mutagenic call is “active; positive” (Test System: AMES SALMONELLA TYPHIMURIUM, Strain/Indicator: TA98, Method: PREINCUBATION) and “active; positive” (Test System: AMES SALMONELLA TYPHIMURIUM, Strain/Indicator: TA100, Method: PREINCUBATION).
